Test results reported in paper PMC9968064, “First Synthesis of DBU-Conjugated Cationic Carbohydrate Derivatives and Investigation of Their Antibacterial and Antifungal Activity” (International Journal of Molecular Sciences, 2023).
“Also recorded” adds a separate entry of the source. Read-outs that look alike come from different tables or passages of the source.

Key:
[1] = test system: Candida albicans (ATCC 10231); parameters: method as in PMID 32349998, PMID 25392352; settings: reference antifungal; cited from earlier work
[2] = test system: Escherichia coli (ATCC 8739); parameters: method as in PMID 24144185; settings: reference antibiotics; cited from earlier work
[3] = test system: Staphylococcus aureus ssp. aureus (ATCC 6538); parameters: method as in PMID 22866984; settings: reference antibiotics; cited from earlier work
[4] = test system: Escherichia coli (ATCC 8739); assay: MIC determination (antibacterial susceptibility test, CLSI / Hungarian Pharmacopeia); type: cell-based; settings: Escherichia coli, ATCC8739, tested range 6.25–100 µg/mL
Protocol: (§1) The antimicrobial activity of twenty-two cationic hexopyranoside-amidinium salts (3, 10, 11, 12, 21, 22, 23, 24, 29, 30, 32, 37, 38, 45, 46, 47, 48, 49, 50, 51, 52 and 53) were compared in susceptibility tests (Table 2). The effectiveness of all compounds was tested on Staphylococcus aureus ssp. aureus (ATCC 6538), Escherichia coli (ATCC 8739) and Candida albicans (ATCC 10231). We tested the antimicrobial activity of the compounds at the concentration range of 6.25–100 µg/mL.
(§2) The detection of the antibacterial and antifungal effects of the tested compounds and the determination of the minimum inhibitory concentration (MIC) were carried out based on the method of CLSI [48] and Hungarian Pharmacopeia (chapters VIII. 2.6.12–13.).
(§3) For the antimicrobial studies, we used three human pathogens as test organisms: Candida albicans (ATCC 10231), Staphylococcus aureus subspecies aureus (ATCC 6538) and Escherichia coli (ATCC 8739).
(§4) Staphylococcus aureus subspecies aureus and Escherichia coli were cultured on tryptic soya agar (TSA) for 18–24 h at 37 °C. Candida albicans was cultured on Sabouraud dextrose agar (SDA) for 18–24 h at 37 °C. To obtain cells for suspension, we made cell suspensions from Staph. aureus, E. coli and C. albicans with the cotton swab suspension technique. The dilution of suspension was then made with 0.85% NaCl solution, absorbance being set to A600nm = 0.06. a volume of 10 μL of these suspensions contained ~4.5–6.0 × 10^4 colony forming unit (CFU) (bacteria) and ~1.5–2.0 × 10^3 CFU for yeast.
(§5) Tested agents were diluted with DMSO; the concentration of stock solutions was 4 mg/mL; and to ensure sterility, the closed sample containers were incubated at 35 °C for 1 h. The highest final concentration was 100 μg/mL.
(§6) Testing was performed in 24-well plates, and cell suspensions were prepared with 0.85% NaCl solution. Stock solutions were made from the agents with DMSO (100%). Final concentrations of used compounds were 6.25–100 µg/mL. […] After inoculation, plates were incubated at 35 °C, and results were then read visually after 18–24 h. If microbial growth could not be detected, results were read visually after 72 h. If there was no growth after 72 h, incubation was continued till the fifth day of the experiment and the results were read visually and with plate reader at 600 nm after 120 h.
(§7) The MIC value of a compound was defined as the minimal concentration that inhibits the growth of bacteria and yeasts comparing to the control. The results of the antibacterial and antifungal tests were read visually after 24, 48, 72 and 120 h. The microbial growth was measured by plate reader at 600 nm after 120 h.

[5] = test system: Staphylococcus aureus ssp. aureus (ATCC 6538); assay: as above; type: cell-based; settings: for MIC: Staphylococcus aureus, ATCC6538, tested range 6.25–100 µg/mL
Protocol: as §1, §2, §3, §4, §5, §6, §7

[6] = test system: Candida albicans (ATCC 10231); assay: MIC determination (antifungal susceptibility test); type: cell-based; settings: for MIC: Candida albicans
Protocol: as §1, §2, §3, §4, §5
as §6, with “Final concentrations of used compounds were 6.25–100 µg/mL.” left out
as §7

[7] = test system: HaCaT (human keratinocyte) cell line; assay: MTT viability test on HaCaT cells; type: cell-based; settings: 24 h; for IC50: Homo sapiens, HaCaT, 50–3.125 µg/mL; for effect on HaCaT cell viability at antibacterially and antifungally active concentrations: ≤6.25 µg/mL
Protocol: The cytotoxic effect of six selected compounds (3, 10, 12, 21, 22 and 29) with promising antimicrobial activity was studied on HaCaT (human keratinocyte) cell lines. Using the MTT-test, we determined the viability of the cells (Figure 3), and the half maximal inhibitory concentration (IC50) values of the compounds are summarized in Table 4. The duration of tests was 24 h; the examined concentrations were: 50–25–12.5–6.25–3.125 µg/mL. The IC50 value of a compound was defined as the concentration that inhibits cell growth by 50% relative to the control. […], the medium containing the inhibitor was removed, and 10 μL MTT solution was added to the cells. The plates were then incubated for two hours at 37 °C. The medium from the wells was then carefully aspirated, and MTT formazan dissolved with 100 μL of DMSO aided by gentle agitation on a shaker. After 10 min at room temperature, the absorbances were read at 570 nm by an automatic plate reader. The percentage of viability reflecting the respiratory potential of the cell population in each well was expressed as (absorbance of treated cells/absorbance of control cells) × 100. IC50 values of tested agents were determined by Graphpad (Prism) semi-log line fitting (graphpad.com (8)). The MTT test was performed after treatment and removal of inhibitors followed by the addition of 10 μL of MTT solution to the cells. We tested the toxic effect of compounds 3, 10, 12, 21, 22 and 29 on HaCaT cell line. HaCaT is a spontaneously transformed, aneuploid keratinocyte, an adherent cell type derived from the epithelium of Human […] adult skin. The cell line was immortalized in 1986 under low calcium and high-temperature conditions. Cells were cultured in DMEM medium (iBiotech, Szigetszentmiklós, Hungary) containing 10% fetal bovine serum (FBS, iBiotech, Szigetszentmiklós, Hungary) and 1% antibiotic-antimycotic mix (Penicillin–Streptomycin–Neomycin).

rat red blood cells = assay: Hemolytic activity on rat red blood cells; type: cell-based, Sprague-Dawley rat; settings: 15 min, 37 °C; for hemolysis compared to negative control PBS: 6.25 µg/mL; for hemolysis (haemoglobin release): 50 and 100 µg/mL, comparable to water positive control
Protocol: The hemolytic activity of compounds 10 and 22 was determined on freshly isolated rat red blood cells (Figure 4).
Blood was collected from a Sprague-Dawley rat into an EDTA tube. Erythrocytes were separated from blood by centrifugation at 1800 rpm for 8 min, washed 3 times with phosphate buffered saline (PBS), and resuspended in PBS. Aliquots of the cell suspension with the respective red blood cell number of 7 × 10^7 were added to PBS containing increasing concentrations of the test compounds or the vehicle DMSO. After gently mixing, each mixture was incubated at 37 °C for 15 min. The released hemoglobin into the supernatant was separated by a rapid centrifugation at 5000 rpm for 5 min. Finally, the absorbance of the released hemoglobin was measured at 540 nm using a Multiskan Go (ThermoFisher, Waltham, MA, USA) microplate reader. The absorbance values were compared to the absorbance of the sample kept in purified water during the incubation as positive control and given as percent hemolysis.

[8] = test system: Lactobacillus plantarum subsp. plantarum (ATCC 14917); assay: Membrane permeabilization by SYTOX green staining; type: cell-based; settings: 6.25 µg/mL; for membrane permeabilization (cellular fluorescence of SYTOX green): Figure 5
Protocol: In membrane permeabilization experiments, the Gram-positive Lactobacillus plantarum was used to test the effect of compounds 10 and 22 at 6.25 µg/mL for 48 h. Bacterial cells were stained with SYTOX green (SG) fluorescent dye, which is impermeable on intact membranes but easily penetrates through compromised membranes.
Lactobacillus plantarum subsp. plantarum (ATCC 14917) was purchased from ATCC (Manassas, VA, USA). The membrane permeabilization ability of compounds 10 and 22 was tested on L. plantarum and determined in the brain heart infusion medium (BHI) (CliniChem Ltd., Budapest, Hungary). Bacterial cells were treated with the test compounds at the final concentration of 6.25 µg/mL and samples were taken at 1, 4, 8, 24 and 48 h. Samples were stained with SYTOX green fluorescent dye (ThermoFischer Scientific, Budapest, Hungary) at 1 µM final concentration for 30 min at 37 °C, and flow cytometric measurements were carried out with a Guava Easy Cyte 6HT-2L flow cytometer (Merck Ltd., Darmstadt, Germany). Green (525/30 nm) and red (695/50 nm) fluorescence channels were used to gate out the cells on a green versus red dot plot. The ratio of the SYTOX green (SG) positive bacterial cells was evaluated.

[9] = ATCC10231, 10× diluted, tested range 0.625–10.0 µg/mL, read-out: MIC Candida albicans (ATCC 10231), lower concentrations
[10] = ATCC10231, tested range 6.25–100 µg/mL, read-out: MIC Candida albicans (ATCC 10231)

| Compound | MIC [4] [µg/mL] | MIC [5] [µg/mL] | MIC [6, 9] [µg/mL] | MIC [6, 10] [µg/mL] | cytotoxic effect on HaCaT cells (in words) [7] | IC50 [7] [µg/mL] | other results |
| --- | --- | --- | --- | --- | --- | --- | --- |
| C[C@@H]1[C@H](O)[C@@H](C)/C=C/C=C/C=C/C=C/C=C/C=C/C=C/[C@H](O[C@@H]2O[C@H](C)[C@@H](O)[C@H](N)[C@@H]2O)C[C@@H]2O[C@](O)(C[C@@H](O)C[C@@H](O)[C@H](O)CC[C@@H](O)C[C@@H](O)CC(=O)O[C@H]1C)C[C@H](O)[C@H]2C(=O)O [Amphotericin B] | – | – | – | – | – | – | MIC Candida albicans (ATCC 10231) [1]: <0.5 [46, 47] µg/mL |
| CC(C)(O/N=C(\C(=O)N[C@@H]1C(=O)N2C(C(=O)[O-])=C(C[n+]3ccccc3)CS[C@H]12)c1csc(N)n1)C(=O)O [Ceftazidime] | – | – | – | – | – | – | MIC Escherichia coli (ATCC 8739) [2]: 8 [42] µg/mL; MIC Staphylococcus aureus (ATCC 6538) [3]: 8 [43, 44, 45] µg/mL |
| CCS[C@H]1O[C@H](C[N+]2=C3CCCCCN3CCC2)[C@@H](OCc2ccc3ccccc3c2)[C@H](OCc2ccccc2)[C@H]1OCc1ccccc1 [Compound 10] | ≥ 100 | < 6.25 | 5 | < 6.25 | only slight cytotoxicity; also recorded: greatly reduced toxicity | 15.3 ± 0.78 | MIC Candida albicans (ATCC 10231), lower concentrations ([6]; 10× diluted, tested range 0.625–10.0 µg/mL): 5.0 µg/mL; effect on HaCaT cell viability at antibacterially and antifungally active concentrations [7]: hardly affected the cell viability; hemolysis compared to negative control PBS (rat red blood cells): did not cause significant hemolysis; hemolysis (haemoglobin release) (rat red blood cells): significantly increased the hemolysis; also recorded: significant haemoglobin release; membrane permeabilization (cellular fluorescence of SYTOX green) [8]: increased membrane permeabilization; ratio of SYTOX green (SG) positive cells ([8]; after 1 h of incubation): increased the ratio of SG-positive cells; ratio of SYTOX green (SG) positive cells ([8]; after 4 h of incubation): drastically increased |
| c1ccc(CO[C@H]2[C@@H](OCc3ccc4ccccc4c3)[C@H](OCc3ccccc3)[C@@H](C[N+]3=C4CCCCCN4CCC3)O[C@@H]2Sc2ccccc2)cc1 [Compound 21] | > 100 | 6.25 to 50 | – | – | significant toxic effect; also recorded: cytotoxic | 1.02 ± 0.06 | – |
| c1ccc(CO[C@@H]2[C@H](OCc3ccccc3)[C@@H](Sc3ccccc3)O[C@H](C[N+]3=C4CCCCCN4CCC3)[C@H]2OCc2ccc3ccccc3c2)cc1 [Compound 22] | ≥ 100 | < 6.25 | 2.5 | < 6.25 | only slight cytotoxicity; also recorded: greatly reduced toxicity | 10.3 ± 0.41 | effect on HaCaT cell viability at antibacterially and antifungally active concentrations [7]: hardly affected the cell viability; hemolysis compared to negative control PBS (rat red blood cells): did not cause significant hemolysis; hemolysis (haemoglobin release) (rat red blood cells): significantly increased the hemolysis; also recorded: significant haemoglobin release; membrane permeabilization (cellular fluorescence of SYTOX green) [8]: increased membrane permeabilization; ratio of SYTOX green (SG) positive cells ([8]; after 1 h of incubation): increased the ratio of SG-positive cells; ratio of SYTOX green (SG) positive cells ([8]; after 4 h of incubation): drastically increased |
| CCS[C@H]1O[C@H](C[N+]2=C3CCCCCN3CCC2)[C@@H](OCc2ccc3ccccc3c2)[C@@H](OCc2ccccc2)[C@H]1OCc1ccccc1 [Compound 29] | > 100 | 6.25 to 50 | 2.5 | < 6.25 | only slight cytotoxicity; also recorded: greatly reduced toxicity | 11.9 ± 0.25 | MIC Staphylococcus aureus (ATCC 6538) ([5]; tested range 6.25–100 µg/mL): <12.5 µg/mL |
| CNC(C)C1CCC(N)C(OC2C(N)CC(N)C(OC3OCC(C)(O)C(NC)C3O)C2O)O1 (centres unmarked) [Gentamicin] | – | – | – | – | – | – | MIC Escherichia coli (ATCC 8739) [2]: 8 [42] µg/mL; MIC Staphylococcus aureus (ATCC 6538) [3]: 8 [43, 44, 45] µg/mL |
